Experiment [1] has as its target T1, GOT1 (glutamate oxaloacetate transaminase 1, aspartate aminotransferase 1) (Homo sapiens, UniProt P17174). Briefly: X-ray crystal structure, […] Å. The format is binding.
The target of experiment [2] is T1, GOT1 (glutamate oxaloacetate transaminase 1, aspartate aminotransferase 1). Put plainly: GLOX/HRP-coupled GOT1 enzyme assay. The format is biochemical.
The target is the same in experiment [3]. Briefly: GLOX/HRP-coupled enzyme kinetics. Type of experiment: biochemical.

T1 sequence (P17174 2-413): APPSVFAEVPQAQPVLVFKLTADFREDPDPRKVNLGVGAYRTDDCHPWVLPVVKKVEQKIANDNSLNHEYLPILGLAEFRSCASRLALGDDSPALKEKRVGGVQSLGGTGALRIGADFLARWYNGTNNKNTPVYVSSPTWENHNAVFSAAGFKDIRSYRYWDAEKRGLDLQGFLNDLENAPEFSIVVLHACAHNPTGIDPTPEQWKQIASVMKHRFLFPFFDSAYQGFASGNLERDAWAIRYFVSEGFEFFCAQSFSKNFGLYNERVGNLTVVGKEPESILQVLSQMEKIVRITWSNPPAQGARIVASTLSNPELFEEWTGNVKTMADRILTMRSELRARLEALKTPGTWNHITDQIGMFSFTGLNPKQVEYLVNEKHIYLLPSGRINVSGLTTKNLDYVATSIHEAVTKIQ

`Cc1ncc(COP(=O)(O)O)c(C=O)c1O` [PLP]: the “X-ray crystal structure, 2.10 Å” value in experiment [1] is “The WT-GOT1 structure is a homodimer, each of which contains PLP”.

`O=C(Nc1ccccc1)N1CCN(c2cccc3[nH]ccc23)CC1` [iGOT1-01] yielded an IC50 in experiment [2] of 11.3 µM.

For the molecule `O=C(O)CCC(=O)C(=O)O` [α-ketoglutarate], the Km in experiment [3] was ~ 0.5 mM.

These data come from publication PMC6487875 (Biochemistry, 2018).
